Data reported in US4931440A, “Uricosuric composition” (Fujisawa Pharmaceutical Company, Ltd., priority 1987, dated 1990).

What was measured:
[1] = Acute toxicity, oral, 14 days observation; conditions: rat, in vivo, male SD rats
Source text: Male SD rats (5 animals per group) were orally dosed with a suspension of the test compound in 0.5% methylcellulose solution and observed for 14 days after oral administration.

[2] = Uricosuric action: serum uric acid level in healthy male adult volunteers; type: in vivo, humans; conditions: single oral dose 600 mg (two capsules of Example 1), N = 6
Description: Compound A, in a single dose of 600 mg (two capsules according to the example (1) given hereinafter), was administered orally to six humans (healthy male adult volunteers) and the serum uric acid level was determined for 48 hours after administration.

[3] = Effect on uric acid excretion in female rats (urinary uric acid assayed by HPLC); type: in vivo, female SD rats; conditions: p.o., urine collected 0-6 hr, dose 0: 3.07 ± 0.44
Description: Female SD rats (6 weeks old) were fasted for 18 hours and submitted to the test (3 animals per group).
Compound B was suspended in 0.5% methylcellulose solution and the suspension was orally administered in a dosing volume of 5 ml/kg.
At the same time, the animals were orally loaded with 20 ml/kg of physiological saline. Urine samples were collected up to 6 hours after drug administration. The uric acid in each urine sample was assayed by HPLC.

Structure (SMILES)	LD50 at 336 h [1] [mg/kg]	Serum uric acid concentration, mean ± standard deviation ([2]; 4 Hrs. after administration, *: significant decrease from baseline (5.5500 ± 0.9439), < 0.05) [mg/dL]	Serum uric acid concentration, mean ± standard deviation ([2]; 8 Hrs. after administration, **: significant decrease from baseline (5.5500 ± 0.9439), P < 0.01) [mg/dL]	Serum uric acid concentration, mean ± standard deviation ([2]; 12 Hrs. after administration, **: significant decrease from baseline (5.5500 ± 0.9439), P < 0.01) [mg/dL]	Serum uric acid concentration, mean ± standard deviation ([2]; 24 Hrs. after administration, *: significant decrease from baseline (5.5500 ± 0.9439), < 0.05) [mg/dL]	Serum uric acid concentration, mean ± standard deviation ([2]; 48 Hrs. after administration, *: significant decrease from baseline (5.5500 ± 0.9439), < 0.05) [mg/dL]	Excretion of uric acid, mean ± S.E. ([3]; 10 mg/kg) [mg/kg]	Excretion of uric acid, mean ± S.E. ([3]; 100 mg/kg) [mg/kg]	Excretion of uric acid, mean ± S.E. ([3]; 320 mg/kg, *: P < 0.05) [mg/kg]
O=C(O)Cn1c(=O)n(Cc2ccc(Br)cc2F)c(=O)c2ccc(Cl)cc21 [Compound A]	4250	4.5000 ± 0.6542	4.0333 ± 0.6250	4.1667 ± 0.7448	4.3167 ± 0.7360	4.5167 ± 0.5981			
O=C(O)Cn1c(=O)n(Cc2ccc(Br)cc2F)c(=O)c2ccc(F)cc21 [Compound B, 2-[7-Fluoro-3-(4-bromo-2-fluorobenzyl)-1,2,3,4-tetrahydro-2,4-dioxoquinazolin-1-yl]acetic acid]	2140						3.36 ± 0.14	4.02 ± 0.18	4.88 ± 0.24
